Reference: patent US9499711B2, “Treatment liquid and recording method” (Seiko Epson Corporation, priority 2014, dated 2016)
Read-outs that look alike come from different tables or passages of the source.

Assay: physchem

With CCOCC(C)O (centres unmarked) [propylene glycol monoethyl ether] the logP (log P value) was 0.3.
With CCOCCOCCOCC [diethylene glycol diethyl ether] the logP (log P value) was 0.39.
Compound CCCCOC(C)COC(C)COC(C)CO (centres unmarked) [tripropylene glycol monobutyl ether] has a logP (log P value) of 1.34.
Compound CCCCCCOCCOCCO [diethylene glycol monohexyl ether] has a logP (log P value) of 1.7.
In the case of CC(C)(O)CCO [3-methyl-1,3-butanediol], the logP (log P value) was 0.16.
Work on CCCC(O)C(CC)CO (centres unmarked) [2-Ethyl-1,3-hexane diol] yielded a logP (logP value of organic compound) of 1.6.
With CCCCCCOCCO [ethylene glycol monohexyl ether] the logP (log P value) was 1.7.
CCCCOCCOCCO [diethylene glycol monobutyl ether] showed a logP (log P value) of 0.56.
Work on CCCOCC(C)O (centres unmarked) [propylene glycol monopropyl ether] yielded a logP (log P value) of 0.62.
Work on CCOCCOCCOCCO [Triethylene glycol monoethyl ether] yielded a logP (logP value of organic compound) of -2.75.
CCCOC(C)COC(C)CO (centres unmarked) [Dipropylene glycol monopropyl ether] showed a logP (log P value) of 0.87 and a logP (logP value of organic compound) of 0.6.
Compound CCCCCO [1-pentanol] has a logP of 1.4.
CCCCOCC(C)O (centres unmarked) [propylene glycol monobutyl ether] showed a logP (log P value) of 1.15.
